Columns and labels:
[1] = Crystallization of CBD blends with different diluents after addition of crystal seed; type: physicochemical; parameters: key to crystallization of CBD: +: crystallization; −: no crystallization; details: for crystallization of CBD: 1% flavor, crystal seed, 22° C., one week; for concentration of CBD stabilized in the composition: at the diluent concentration that prevents crystallization
Description: 5 g of the following different blends were prepared. The blends contained a CBD distillate containing 92% of CBD, a diluent at different concentrations and 1% natural flavor (Girl School cookies from Floraplex—USA). The diluent was phytol, natural bisabolol or a combination of phytol and natural bisabolol. 2 mg of crystal seed were added to the vial to initiate crystallization. The vials were stored at 22° C. The vials were checked after a week to see if there is crystallization.

[2] = Stability of oversaturated CBD blend to crystallization; type: physicochemical; parameters: key: +: crystallization; −: no crystallization; details: one week at 10 or 22° C.
Description: Vials were prepared with 5 ml of oversaturated blend of CBD with different diluent. The blend was composed of CBD distilled oil (containing 90% CBD and less than 1% bisabolol) or CBD isolate (more than 99% CBD), and natural bisabolol and phytol. The stability of the solution to crystallization in the vial after a week of storage at either 10 or 22° C. is presented in Table 7.

[3] = 28% diluent in blend, CBD distillate 92% CBD
[4] = 32% diluent in blend, CBD distillate 92% CBD
[5] = 36% diluent in blend, CBD distillate 92% CBD

| SMILES | crystallization of CBD [1, 3] | crystallization of CBD [1, 4] | crystallization of CBD [1, 5] | concentration of CBD stabilized in the composition [1] | Crystallization ([2]; CBD 90% distilled oil, 5% diluent in blend) | Crystallization ([2]; CBD 90% distilled oil, 10% diluent in blend) | Crystallization ([2]; CBD 90% distilled oil, 20% diluent in blend) | Crystallization ([2]; CBD isolate, 10% diluent in blend) | Crystallization ([2]; CBD isolate, 20% diluent in blend) | crystallization of CBD ([1]; 40% diluent in blend, CBD distillate 92% CBD) | crystallization of CBD ([1]; 44% diluent in blend, CBD distillate 92% CBD) | concentration of diluent required to prevent crystallization ([1]; upon addition of crystallization seeds, CBD distillate 92% CBD) | Crystallization ([2]; CBD 90% distilled oil, 15% diluent in blend) |
| --- | --- | --- | --- | --- | --- | --- | --- | --- | --- | --- | --- | --- | --- |
| CC(C)=CCC[C@](C)(O)C1CC=C(C)CC1 (stereo partly drawn) [Bisabolol, α-(−)-bisabolol] | + | − | − | up to 65% | − | − | − | + | − |  |  |  |  |
| C/C(=C\CO)CCC[C@H](C)CCC[C@H](C)CCCC(C)C [Phytol, phytol] | + | + | + | about 50% |  |  |  |  |  | + | − | about 44% | + |

From US20220031845A1, “DILUENTS FOR COMPOSITIONS OF CANNABINOIDS AND USES THEREOF” (KANABO RESEARCH LTD., priority 2019, published 2022)
